Calls of active or inactive are those of the source.
Assays:
[1] = molecular target: T1, Bcl-2-related protein A1 (Mus musculus, UniProt Q07440); test: Bfl-1 inhibitors blocking BH3 peptide binding, confirmation, biochemical, TR-FRET, mouse Bfl-1 (AID 621);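 further: TR-FRET binding of GST-Bfl-1 to FITC-labelled Bid peptide via terbium antibody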
T1 sequence (Q07440 whole entry): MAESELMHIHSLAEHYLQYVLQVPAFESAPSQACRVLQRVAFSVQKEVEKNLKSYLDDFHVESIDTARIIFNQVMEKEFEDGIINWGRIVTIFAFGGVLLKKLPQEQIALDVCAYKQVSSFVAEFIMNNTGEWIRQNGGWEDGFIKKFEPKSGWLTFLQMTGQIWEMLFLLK

[2] = molecular target: T1, Bcl-2-related protein A1; test: Bfl-1 binding inhibitors, SAR follow-up, biochemical, fluorescence polarization (AID 1070)
[3] = molecular target: Peroxisome proliferator-activated receptor gamma/Nuclear receptor coactivator 1 (Homo sapiens, UniProt P37231); test: (§1) TR-FRET dose response biochemical High Throughput Screening assay for agonists of the steroid receptor coactivator 1 (SRC-1) recruitment by the peroxisome proliferator-activated receptor gamma (PPAR gamma): non-selective agonists. [Related pubchem assays (depositor defined):AID1300, AID1808, AID504735, AID631]; format: protein assay
Sequence of Peroxisome proliferator-activated receptor gamma/Nuclear receptor coactivator 1 (P37231 whole entry): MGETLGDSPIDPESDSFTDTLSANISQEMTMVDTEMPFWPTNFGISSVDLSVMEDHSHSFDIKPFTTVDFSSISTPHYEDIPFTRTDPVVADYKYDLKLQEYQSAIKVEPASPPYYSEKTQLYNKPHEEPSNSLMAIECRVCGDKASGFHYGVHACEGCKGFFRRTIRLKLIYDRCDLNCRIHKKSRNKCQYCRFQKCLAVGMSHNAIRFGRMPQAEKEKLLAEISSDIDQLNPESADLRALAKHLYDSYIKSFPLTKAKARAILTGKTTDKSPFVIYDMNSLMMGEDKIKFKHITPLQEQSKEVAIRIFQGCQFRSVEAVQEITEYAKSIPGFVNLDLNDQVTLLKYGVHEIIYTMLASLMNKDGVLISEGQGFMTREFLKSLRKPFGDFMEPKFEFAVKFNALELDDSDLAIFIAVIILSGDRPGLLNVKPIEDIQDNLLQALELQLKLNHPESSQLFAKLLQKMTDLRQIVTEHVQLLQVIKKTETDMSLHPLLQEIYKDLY
Sequence of Peroxisome proliferator-activated receptor gamma/Nuclear receptor coactivator 1 (Q15788 whole entry, further chain): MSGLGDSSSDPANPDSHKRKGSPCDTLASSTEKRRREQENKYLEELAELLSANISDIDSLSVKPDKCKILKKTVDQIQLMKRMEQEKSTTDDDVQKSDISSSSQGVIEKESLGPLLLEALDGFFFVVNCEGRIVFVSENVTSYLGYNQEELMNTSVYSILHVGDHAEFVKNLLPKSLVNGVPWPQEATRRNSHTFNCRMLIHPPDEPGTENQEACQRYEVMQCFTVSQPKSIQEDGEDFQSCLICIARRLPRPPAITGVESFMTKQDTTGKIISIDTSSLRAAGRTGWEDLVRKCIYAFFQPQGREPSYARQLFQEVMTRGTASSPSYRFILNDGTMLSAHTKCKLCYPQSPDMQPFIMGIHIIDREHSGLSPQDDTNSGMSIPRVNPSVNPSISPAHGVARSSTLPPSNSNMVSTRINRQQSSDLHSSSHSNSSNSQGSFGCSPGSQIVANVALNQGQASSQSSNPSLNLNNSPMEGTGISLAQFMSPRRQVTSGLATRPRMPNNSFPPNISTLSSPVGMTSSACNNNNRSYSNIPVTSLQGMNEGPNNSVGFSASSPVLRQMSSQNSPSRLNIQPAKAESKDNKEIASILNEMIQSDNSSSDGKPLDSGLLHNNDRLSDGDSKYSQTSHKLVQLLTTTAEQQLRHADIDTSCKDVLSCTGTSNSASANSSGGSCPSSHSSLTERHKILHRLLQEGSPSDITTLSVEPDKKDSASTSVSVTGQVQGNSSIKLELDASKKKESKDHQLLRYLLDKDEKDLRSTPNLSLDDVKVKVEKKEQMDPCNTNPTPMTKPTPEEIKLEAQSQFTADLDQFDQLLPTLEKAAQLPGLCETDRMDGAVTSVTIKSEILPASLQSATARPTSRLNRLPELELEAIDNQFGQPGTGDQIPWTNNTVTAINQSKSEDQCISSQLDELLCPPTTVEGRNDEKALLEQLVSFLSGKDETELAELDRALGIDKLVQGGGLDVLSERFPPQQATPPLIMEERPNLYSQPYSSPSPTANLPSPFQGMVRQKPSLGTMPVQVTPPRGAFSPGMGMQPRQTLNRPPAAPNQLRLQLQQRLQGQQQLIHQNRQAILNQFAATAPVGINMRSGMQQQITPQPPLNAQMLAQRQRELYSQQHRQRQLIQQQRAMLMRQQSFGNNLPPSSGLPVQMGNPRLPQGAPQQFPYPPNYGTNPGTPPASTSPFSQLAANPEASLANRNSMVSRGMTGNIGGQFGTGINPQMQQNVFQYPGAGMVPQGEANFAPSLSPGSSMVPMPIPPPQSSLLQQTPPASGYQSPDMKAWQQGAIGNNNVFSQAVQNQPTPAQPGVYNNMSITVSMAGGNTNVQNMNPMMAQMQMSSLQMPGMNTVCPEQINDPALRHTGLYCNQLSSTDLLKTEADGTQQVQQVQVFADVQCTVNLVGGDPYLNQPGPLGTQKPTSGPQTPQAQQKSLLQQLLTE

[4] = molecular target: Peroxisome proliferator-activated receptor gamma/Nuclear receptor coactivator 3 (Homo sapiens, UniProt P37231); test: as §1, with “3 (SRC-3)” for “1 (SRC-1)”, “assays: 1301 (Confirmation screen.), 1048 (Primary screen.)]” for “assays (depositor defined):AID1300, AID1808, AID504735, AID631]”; format: functional
Sequence of Peroxisome proliferator-activated receptor gamma/Nuclear receptor coactivator 3 (P37231 whole entry): as the sequence (P37231 whole entry) above
Sequence of Peroxisome proliferator-activated receptor gamma/Nuclear receptor coactivator 3 (Q9Y6Q9 whole entry, further chain): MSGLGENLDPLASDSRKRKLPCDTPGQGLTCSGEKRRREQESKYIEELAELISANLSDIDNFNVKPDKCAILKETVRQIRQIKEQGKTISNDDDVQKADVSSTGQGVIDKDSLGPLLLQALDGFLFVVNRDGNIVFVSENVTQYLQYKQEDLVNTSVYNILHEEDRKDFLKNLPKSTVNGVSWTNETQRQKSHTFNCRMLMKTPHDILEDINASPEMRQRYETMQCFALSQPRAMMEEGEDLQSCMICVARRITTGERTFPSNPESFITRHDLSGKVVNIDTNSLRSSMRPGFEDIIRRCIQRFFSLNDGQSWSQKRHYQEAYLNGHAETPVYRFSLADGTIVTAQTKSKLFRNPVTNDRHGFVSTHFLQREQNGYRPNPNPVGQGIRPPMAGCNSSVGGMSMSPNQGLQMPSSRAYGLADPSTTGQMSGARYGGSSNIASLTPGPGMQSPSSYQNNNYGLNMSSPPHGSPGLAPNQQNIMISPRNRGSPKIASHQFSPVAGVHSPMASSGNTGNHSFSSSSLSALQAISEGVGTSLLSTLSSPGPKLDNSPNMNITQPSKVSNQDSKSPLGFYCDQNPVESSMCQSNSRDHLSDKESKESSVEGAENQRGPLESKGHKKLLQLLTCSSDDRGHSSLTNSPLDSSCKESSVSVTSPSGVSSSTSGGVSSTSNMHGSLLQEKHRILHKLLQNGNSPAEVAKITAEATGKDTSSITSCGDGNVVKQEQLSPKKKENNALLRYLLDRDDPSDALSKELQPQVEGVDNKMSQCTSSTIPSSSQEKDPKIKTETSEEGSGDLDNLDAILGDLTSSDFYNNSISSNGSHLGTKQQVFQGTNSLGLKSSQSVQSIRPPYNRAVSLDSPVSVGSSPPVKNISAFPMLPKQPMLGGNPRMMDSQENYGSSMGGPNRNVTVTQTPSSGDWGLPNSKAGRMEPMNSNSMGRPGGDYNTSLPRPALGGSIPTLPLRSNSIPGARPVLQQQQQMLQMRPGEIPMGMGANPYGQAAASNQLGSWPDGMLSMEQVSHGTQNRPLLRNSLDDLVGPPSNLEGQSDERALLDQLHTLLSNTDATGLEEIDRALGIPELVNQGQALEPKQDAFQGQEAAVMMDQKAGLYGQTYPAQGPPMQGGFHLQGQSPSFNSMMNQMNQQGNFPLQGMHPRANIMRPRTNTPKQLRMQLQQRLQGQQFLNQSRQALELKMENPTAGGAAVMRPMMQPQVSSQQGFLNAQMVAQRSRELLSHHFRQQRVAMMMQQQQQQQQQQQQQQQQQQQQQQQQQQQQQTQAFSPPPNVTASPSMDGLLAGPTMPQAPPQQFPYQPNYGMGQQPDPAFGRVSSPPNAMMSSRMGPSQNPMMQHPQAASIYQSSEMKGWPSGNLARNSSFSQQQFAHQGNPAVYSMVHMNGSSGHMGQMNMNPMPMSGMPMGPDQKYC

[5] = molecular target: NS3 (Hepatitis C virus, UniProt A3EZJ3); test: PubChem AID 2173; parameters: species or system Hepacivirus hominis
Sequence of NS3 (A3EZJ3 whole entry): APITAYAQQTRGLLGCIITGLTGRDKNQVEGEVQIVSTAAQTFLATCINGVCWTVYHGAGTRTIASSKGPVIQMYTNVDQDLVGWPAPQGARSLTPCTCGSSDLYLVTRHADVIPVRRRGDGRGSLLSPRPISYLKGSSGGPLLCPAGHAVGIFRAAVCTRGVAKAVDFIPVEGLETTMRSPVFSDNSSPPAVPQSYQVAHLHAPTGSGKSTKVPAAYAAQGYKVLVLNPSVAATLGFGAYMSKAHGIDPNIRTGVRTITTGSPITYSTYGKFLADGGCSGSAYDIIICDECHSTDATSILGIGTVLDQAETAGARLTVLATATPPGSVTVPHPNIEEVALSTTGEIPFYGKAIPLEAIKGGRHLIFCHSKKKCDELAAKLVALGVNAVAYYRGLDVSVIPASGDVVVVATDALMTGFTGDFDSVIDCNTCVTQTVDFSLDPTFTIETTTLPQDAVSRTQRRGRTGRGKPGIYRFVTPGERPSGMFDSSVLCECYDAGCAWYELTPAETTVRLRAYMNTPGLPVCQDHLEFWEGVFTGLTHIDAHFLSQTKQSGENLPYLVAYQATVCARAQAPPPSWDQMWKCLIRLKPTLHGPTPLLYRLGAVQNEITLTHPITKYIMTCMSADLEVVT

[6] = molecular target: Peroxisome proliferator-activated receptor gamma/Nuclear receptor coactivator 2 (Homo sapiens, UniProt P37231); test: TR-FRET dose response biochemical High Throughput Screening assay for agonists of the steroid receptor coactivator 2 (SRC-2) recruitment by the peroxisome proliferator-activated receptor gamma (PPAR gamma): non-selective agonists. [Related pubchem assays: 1297, 1032 ]; format: functional
[7] = molecular target: Cysteine protease ATG4B (Homo sapiens, UniProt Q9Y4P1); format: functional;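 further: Fluorescence-based dose-response confirmation assay measuring inhibition of ATG4B activity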
[8] = molecular target: Phospholipase A2 (Homo sapiens, UniProt P04054); format: functional;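 further: confirmatory dose-response counterscreen on phospholipase A2, testing hits that came from an ultra-high-throughput screen for ATG4B inhibitors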
Sequence of Phospholipase A2 (P04054 whole entry): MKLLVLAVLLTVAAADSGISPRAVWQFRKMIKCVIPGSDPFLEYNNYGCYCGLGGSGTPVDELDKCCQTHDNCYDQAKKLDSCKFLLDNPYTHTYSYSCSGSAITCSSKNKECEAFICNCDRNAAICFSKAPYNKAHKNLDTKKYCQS

[9] = molecular target: DNA (cytosine-5)-methyltransferase 1 (Homo sapiens, UniProt P26358); test: DNMT1 methyltransferase inhibitors, confirmation, biochemical, fluorescent molecular beacon (AID 602386); format: functional
[10] = Luminescence Cell-Based Dose Confirmation HTS to Identify Inhibitors of Polyadenylation.; format: functional
[11] = cytotoxicity in HPDE-C7 cells, cell-based, fluorescence, HTS (AID 430); format: functional; conditions: Homo sapiens
[12] = cytotoxicity in KRAS-transformed pancreatic duct cells, primary screen, cell-based, fluorescence, HTS (AID 431); format: functional; conditions: Homo sapiens;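 further: cell line used: HPDE-C7K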
[13] = growth suppression of PTEN-null colon cells, dose response, cell-based, HCT116 PTEN knockout (AID 1047); format: functional;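 further: HCT116 colon tumor cells with PTEN knocked out; cells exposed to compound for 60 hours before readout; potency for loss of cell viability measured by luminescence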
[14] = growth suppression of beta-catenin-knockout colon cells, dose response, cell-based, HCT116, human colon tumor (AID 1045); format: functional;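 further: HCT116 colon tumor cells with beta catenin knocked out; cells exposed to compound for 60 hours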
[15] = molecular target: FAD-linked sulfhydryl oxidase ALR (Homo sapiens, UniProt P55789); test: inhibitors of human ALR sulfhydryl oxidase, dose response, biochemical, H2O2 detection, luminescence, cherry-pick (AID 493248)
[16] = tested on: HEK293; test: Fluorescence-based counterscreen for potentiators or agonists of NPY-Y2: cell-based high-throughput dose response assay to identify inhibitors of cyclic nucleotide gated ion channel (CNGC) activity. In this assay, the parental HEK293 cell line transfected with a cyclic-nucleotide gated ion channel (CNGC)-based cAMP sensor is used to measure inhibition of isoproterenol-induced CNGC activity by test compound.; format: functional; conditions: Homo sapiens;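 further: stimulus is 1 µM isoproterenol at EC100 plus PDE inhibitor Ro 20-1724 at 25 µM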
[17] = tested on: Streptococcus sp. 'group A'; test: growth inhibition of control SK(-) GAS strain, dose response, counter-screen for streptokinase expression inhibitor project, luminescence, kanamycin, BacTiterGlo, confirmation (AID 1900); format: functional, organism-based
[18] = cells; format: functional, cell-based
[19] = molecular target: Neuropeptide Y receptor type 2 (Homo sapiens, UniProt P49146); test: Fluorescence-based cell-based high-throughput dose response assay for agonists of NPY-Y2. [Related pubchem assays: 1703 (Screening assay (CNGC inhibitors).), 1359 (Screening assay (NPY-Y2 potentiators or agonists).), 1304 (Screening assay (NPY-Y1 potentiators or agonists).), 1710 (Screening assay (NPY-Y2 agonists).), 1791 (Summary AID.)]; format: functional
Sequence of Neuropeptide Y receptor type 2 (P49146 whole entry): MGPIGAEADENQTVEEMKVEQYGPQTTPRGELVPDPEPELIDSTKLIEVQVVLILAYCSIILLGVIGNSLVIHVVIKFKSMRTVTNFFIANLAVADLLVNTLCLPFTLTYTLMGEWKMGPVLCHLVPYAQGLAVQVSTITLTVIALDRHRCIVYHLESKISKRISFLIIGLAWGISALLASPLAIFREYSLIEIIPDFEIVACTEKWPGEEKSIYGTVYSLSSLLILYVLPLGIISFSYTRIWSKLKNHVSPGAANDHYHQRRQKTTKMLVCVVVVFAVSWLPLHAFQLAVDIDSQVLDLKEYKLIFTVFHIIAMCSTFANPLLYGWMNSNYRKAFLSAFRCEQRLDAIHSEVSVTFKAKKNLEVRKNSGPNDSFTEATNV

[20] = molecular target: T2, Streptokinase A (Streptococcus pyogenes serotype M1, UniProt P10520); test: S. pyogenes streptokinase expression inhibitors, potency, dose response, plasminogen activation absorbance, OD405 (AID 1914); format: functional, Streptococcus pyogenes M1 GAS;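 further: secreted streptokinase activity via plasminogen activation per viability signal from cell pellet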
T2 sequence (P10520 whole entry): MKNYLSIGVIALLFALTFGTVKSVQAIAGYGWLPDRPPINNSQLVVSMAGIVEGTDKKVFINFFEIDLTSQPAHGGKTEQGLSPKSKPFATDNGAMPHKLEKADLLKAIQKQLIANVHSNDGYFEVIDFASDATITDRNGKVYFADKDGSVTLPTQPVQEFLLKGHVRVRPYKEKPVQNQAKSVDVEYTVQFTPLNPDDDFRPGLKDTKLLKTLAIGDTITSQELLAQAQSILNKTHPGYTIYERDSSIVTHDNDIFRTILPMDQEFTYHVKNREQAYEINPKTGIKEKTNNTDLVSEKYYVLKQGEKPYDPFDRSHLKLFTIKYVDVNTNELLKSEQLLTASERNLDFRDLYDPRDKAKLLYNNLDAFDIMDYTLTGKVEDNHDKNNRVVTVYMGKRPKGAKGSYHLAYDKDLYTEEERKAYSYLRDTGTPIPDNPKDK

[21] = cells; format: functional, cell-based; remark: listed apart in the source
[22] = molecular target: Neuropeptide Y receptor type 1 (Homo sapiens, UniProt P25929); test: Fluorescence-based counterscreen for agonists of NPY-Y2: cell-based high-throughput dose response assay for agonists of NPY-Y1.; format: functional
[23] = tested on: Streptococcus; test: Group A Streptococcus viability loss, dose response, counter-screen for streptokinase expression inhibitor project, luminescence, BacTiterGlo (AID 1915); format: functional, organism-based;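 further: potency for reduction of bacterial viability or growth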
[24] = tested on: BJ; test: cytotoxicity toward Ras-transformed BJeLR fibroblasts, dose response, cell-based, alamar blue fluorescence, cherrypicked samples (AID 2631); format: functional; conditions: Homo sapiens;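 further: confirmatory dose-response assay in RAS-dependent BJ fibroblasts engineered with TERT, LT and ST, with cytotoxicity read by fluorescence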
[25] = tested on: INS1; test: beta cell apoptosis inhibitors, cytokine rescue, dose response, luminescence, retest (AID 449756); format: functional, cell-based; conditions: Rattus norvegicus;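 further: cell death triggered by IL-1 beta plus TNF-alpha plus IFN-gamma mixture; protective hits raise ATP signal compared with cytokine alone wells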
[26] = molecular target: T3, DNA repair protein RAD52 homolog (Homo sapiens, UniProt P43351); format: functional, biochemical
T3 sequence (P43351 whole entry): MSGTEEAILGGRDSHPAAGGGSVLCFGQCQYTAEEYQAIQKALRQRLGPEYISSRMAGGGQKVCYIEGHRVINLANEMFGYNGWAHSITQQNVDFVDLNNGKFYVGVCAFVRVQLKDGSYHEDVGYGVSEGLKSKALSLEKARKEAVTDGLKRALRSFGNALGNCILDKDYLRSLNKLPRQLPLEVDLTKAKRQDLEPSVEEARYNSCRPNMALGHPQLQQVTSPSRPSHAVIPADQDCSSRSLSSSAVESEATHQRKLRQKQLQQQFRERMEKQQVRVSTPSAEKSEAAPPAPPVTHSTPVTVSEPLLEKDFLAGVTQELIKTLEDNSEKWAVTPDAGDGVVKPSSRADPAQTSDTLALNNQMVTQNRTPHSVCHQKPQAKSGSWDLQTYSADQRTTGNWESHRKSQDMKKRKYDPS

## C[C@@H]1CN(C2=C(Cl)C(=O)N(c3ccc(Cl)c(Cl)c3)C2=O)CCN1
[1]
  IC50: 1.03 µM (active)
[2]
  IC50: 1.16 µM (active)

## O=C1NN(c2ccccc2)C(=O)/C1=C/c1ccc(Sc2cccc3ccccc23)o1
[3]
  EC50: > 79.4 µM (inactive)
[4]
  EC50: > 79.4 µM (not active)
[5]
  IC50: 5.55 µM (active)
[6]
  EC50: 92.2 µM (not active)
[7]
  IC50: 8.56 µM (active)
[8]
  IC50: 8.08 µM (active)
[9]
  IC50: 7.12 µM (active)

## O=C(O)c1ccc(SCc2cnc(Cl)s2)cc1
[10]
  EC50: > 120 µM (not active)

## CCN(CCNC(=O)C1CCN(Cc2nc(-c3cccc(Cl)c3)oc2C)CC1)c1ccccc1
[11]
  EC50: > 20 µM (not active)
[12]
  EC50: > 20 µM (not active)
[13]
  EC50: 13.3 µM (active)
[14]
  EC50: 10.7 µM (active)
[15]
  AC50: 0.024 µM (active)

## Cc1sc2cc3c(c(C(=O)c4ccccc4)[n+]2c1C)-c1cccc2cccc-3c12
[16]
  EC50: 12.3 µM (not active)
[17]
  EC50: 6.52 µM (active)
[18]
  EC50: > 350 µM (not active)
[19]
  EC50: 11.5 µM (not active)
[20]
  EC50: 31.9 µM (active)
[21]
  EC50: > 350 µM (not active)
[22]
  EC50: 8.19 µM (active)
[23]
  EC50: 23.5 µM (active)
[24]
  EC50: 30.6 µM (active)
[25]
  AC50: 1.91 µM (active)
[26]
  AC50: 1.43 µM (active)

Reference: ChEMBL document CHEMBL1201862, “PubChem BioAssay data set” (2004)
